{"source": "patent US20090022739A1", "about": "“MODULATING THE KV1.1 VOLTAGE-GATED POTASSIUM CHANNEL IN T-CELLS FOR REGULATING THE […] AND SECRETION OF TUMOR NECROSIS FACTOR ALPHA (tnf-ALPHA) AND TREATING HUMAN DISEASE OR INJURIES MEDIATED BY […] HIGH OR LOW LEVELS OF TNF-ALPHA” (priority 2005, published 2009)", "key": {"TNF-α mRNA": {"system": "TNF-α mRNA", "experiment": "RT-PCR for TNF-α mRNA in normal human T-cells", "assay_type": "cell-based", "details": "100 nM DTX-K for 24 hr; normalized to S14; FIG. 3A", "experimental": "RT-PCR for TNF-α and Kv1.1: Total RNA was prepared according to Tri-Reagent protocol (MRC, Cincinnati, Ohio). First-strand cDNA was synthesized by Reverse Transcription System (Promega, Madison, Wis.). RT-PCR was conducted in a 50 μl reaction mixture containing 50 ng cDNA, 5 μl of X10 Optibuffer (Bioline, London, UK), 3 μl of 50 mM MgCl2, 2.5 μl of 10 mM dNTP mix (Promega), 4U of Bio-X-act DNA Polymerase (Bioline). For TNF-α/S14 parallel amplification, 2 μl of each TNF-α primer (10 pmol/μl) and 0.25 μl of each S14 primer (10 pmol/μl) were used. For Kv1.1/S14 parallel amplification, 5 μl of each Kv1.1 primer (100 pmol/μl) and 2.5 μl of each S14 primer (10 pmol/μl) were used. […]; Conditions for TNF-α PCR were: 94° C. for 1 minute, 63° C. for 40 seconds and 72° C. for 40 seconds (29 cycles). Conditions for Kv1.1 PCR were: 94° C. for 3 minutes (one cycle); 94° C. for 1 minute, 60/57/54/51/48° C. for 2 minutes and 72° C. for 3 minutes (three cycles each); 94° C. for 1 minute, 50° C. for 2 minutes and 72° C. for 3 minutes (25 cycles). […]\nThe question of whether selective block of Kv1.1 subunit containing channels in T-cells elevates not only the levels of the TNF-α protein, but also TNF-α mRNA was studied next. […] Bars at the bottom represent fold increase TNF-α mRNA calculated following densitometric analysis and normalization of the corresponding RT-PCR bands of TNF-α/S14. […]"}, "NF-κB p50": {"system": "NF-κB p50", "experiment": "Immunofluorescent histochemistry for NF-κB p50 nuclear translocation", "assay_type": "cell-based, human", "details": "100 nM DTX-K; 7 minutes; FIG. 3C", "experimental": "Immunofluorescent Histochemistry for NF-κB: Freshly-isolated normal human T-cells that were pretreated or not with DTX-K (100 nM for 7, 15, 30 and 60 minutes), were pelleted (1200 g, 10 minutes, […]), suspended in PBS at 1×10^6 cells/ml, centrifuged (1200 g, 10 minutes), fixed on glass slide by cytospin (250 μl/slide, 1500 rpm, 5 minutes; Shandon Elliot, London, UK), permeablized (200 μl/slide of a solution containing 100 ml 95% methanol and 3 ml acetic acid glacial), and incubated in a blocking medium (200 μl/slide) containing 10% normal goat serum, 2% BSA, 1% glycine and 0.5% triton X-100. The cells were then stained with a rabbit anti-human NF-κB p50 polyclonal Ab (80 μl of 1:50 dilution for 30 minutes at room temperature; Santa Cruz Biotechnology, Santa Cruz, Calif.). […]\nIn case of the TNF-α gene, the observed importance of NF-κB for the expression of the TNFα gene may depend on the cell type and the segment of the enhancer/promoter analyzed (Siebenlist et al, 1990). […]\nIn the experiment the results of which are shown in FIG. 3C, normal human T-cells were either left untreated or treated with 100 nM DTX-K for 7, 15, 30 and 60 minutes (see DTX-K treatment time above each respective column). […] Representative photographs at ×100 magnification are shown for NF-κB p50 green fluorescence (upper panel), nuclei blue fluorescence (middle panel), and overlay of both (lower panel). […]"}, "Kv1.1": {"target": "Kv1.1 (Homo sapiens, UniProt Q09470)", "sequence (Q09470 whole entry)": "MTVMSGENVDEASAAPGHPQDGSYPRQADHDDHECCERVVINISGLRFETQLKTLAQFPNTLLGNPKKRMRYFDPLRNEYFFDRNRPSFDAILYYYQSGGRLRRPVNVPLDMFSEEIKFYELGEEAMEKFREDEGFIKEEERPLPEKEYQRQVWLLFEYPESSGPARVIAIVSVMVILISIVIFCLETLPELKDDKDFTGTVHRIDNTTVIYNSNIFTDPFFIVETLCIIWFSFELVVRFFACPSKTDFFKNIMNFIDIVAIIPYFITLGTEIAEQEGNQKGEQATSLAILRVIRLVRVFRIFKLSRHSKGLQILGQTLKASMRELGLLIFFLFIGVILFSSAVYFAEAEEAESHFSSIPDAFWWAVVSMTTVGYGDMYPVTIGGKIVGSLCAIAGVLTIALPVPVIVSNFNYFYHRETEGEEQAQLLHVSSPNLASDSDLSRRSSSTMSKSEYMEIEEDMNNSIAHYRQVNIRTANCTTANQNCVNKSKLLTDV", "details": "cited from earlier work"}, "NF-κB": {"system": "NF-κB", "experiment": "EMSA for nuclear NF-κB in normal human T-cells", "assay_type": "cell-based", "details": "100 nM DTX-K", "experimental": "EMSA for Nuclear NF-κB: Nuclear fractions from freshly-isolated normal human T-cells were collected using Nuclear Extract Kit (Active Motif, Carlsbad, Calif.), according to the manufacturer's instructions. NF-κB levels in nuclear fractions were measured using TransAM NF-κB Family Kit (Active Motif), according to the manufacturer's instructions.\nIn case of the TNF-α gene, the observed importance of NF-κB for the expression of the TNFα gene may depend on the cell type and the segment of the enhancer/promoter analyzed (Siebenlist et al, 1990). On these grounds, we investigated whether block of Kv1.1 channels in normal human T-cells (once again, in the complete absence of any other stimuli) can affect NF-κB. […]\nNuclear extracts were […] for several time periods, of which only 7 min is shown. The results, expressed as OD±SD, reflect the amount of NF-κB bound to nuclear NF-κB-binding sequences, as determined by commercially available EMSA. […]"}}, "data": [{"substance": "Dendrotoxin-K (AAKYCKLPLRIGPCKRKIPSFYYKWKAKQCLPFDYSGCGGNANRFKTIEECRRTCVG) [DTX-K]", "values": [{"measurement": "TNFα mRNA levels", "setting": "TNF-α mRNA", "value": "augmented"}, {"measurement": "NF-κB p50 staining of the cell nucleus", "setting": "NF-κB p50", "value": "clearly positive for NF-κB p50"}, {"measurement": "active concentration, Kv1.1 channel block", "setting": "Kv1.1", "value": "picomolar concentrations"}, {"measurement": "level of NF-κB present in the nuclear extracts", "setting": "NF-κB; 7 minutes, FIG. 3B", "value": "significantly augmented"}, {"measurement": "elevation of nuclear NF-κB at later time points", "setting": "NF-κB; several later time points, data not shown", "value": "no longer detected"}]}]}
